molecular target: Flpin-293-PDE4B2 cells (Homo sapiens, UniProt Q07343); assay: cell-based; conditions: read-out: Cell Inhibition % @1 nM, 1 nM, Flpin-293-PDE4B2 cells
Sequence (Q07343 1-564 isoform Q07343-2): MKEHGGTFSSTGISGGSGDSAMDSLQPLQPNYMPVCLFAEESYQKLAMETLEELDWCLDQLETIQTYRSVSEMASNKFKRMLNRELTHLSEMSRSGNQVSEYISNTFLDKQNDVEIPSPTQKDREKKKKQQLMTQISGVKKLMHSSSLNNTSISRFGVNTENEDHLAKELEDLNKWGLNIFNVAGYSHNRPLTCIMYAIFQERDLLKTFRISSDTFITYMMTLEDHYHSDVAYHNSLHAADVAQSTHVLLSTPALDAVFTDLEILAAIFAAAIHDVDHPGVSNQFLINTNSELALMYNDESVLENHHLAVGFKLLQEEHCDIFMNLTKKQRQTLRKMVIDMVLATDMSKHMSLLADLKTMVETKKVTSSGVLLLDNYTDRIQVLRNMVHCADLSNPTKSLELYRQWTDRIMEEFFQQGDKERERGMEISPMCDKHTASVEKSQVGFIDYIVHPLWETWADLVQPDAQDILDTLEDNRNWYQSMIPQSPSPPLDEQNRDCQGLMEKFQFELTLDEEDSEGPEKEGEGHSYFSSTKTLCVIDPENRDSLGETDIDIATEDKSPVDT

SMILES | inhibition at 0.001 µM [%]
COc1nn(C)cc1Nc1nc(N2CCc3cc(N4CCCC4)ccc3C2)nc2c1[S+]([O-])CC2 (stereo not drawn) [Compound 193] | 4.88
C[C@H]1c2ccc(N3CCCC3)cc2CCN1c1nc2c(c(NC3(CO)COC3)n1)[S+]([O-])CC2 (stereo partly drawn) [Compound 200] | 14.7
[O-][S+]1CCc2nc(N3CCc4cc(N5CCCC5)ccc4C3)nc(Nc3cnn(C4COC4)c3)c21 (stereo not drawn) [Compound 192] | 15.4
[O-][S+]1CCc2nc(N3CCc4cc(N5CCCCC5)ccc4C3)nc(NC3(CO)CCC3)c21 (stereo not drawn) [Compound 143] | 13.9

same assay, conditions: read-out: Cell Inhibition % @10 nM, 10 nM, Flpin-293-PDE4B2 cells

SMILES | inhibition at 0.01 µM [%]
[O-][S+]1CCc2nc(N3CCc4ccc(Br)cc4CC3)nc(NC3(CO)CCC3)c21 (stereo not drawn) [Compound 46] | 69.6
[O-][S+]1CCc2nc(N3CCc4sc(Br)cc4C3)nc(NC3(CO)CCC3)c21 (stereo not drawn) [Compound 55] | 52.8
[O-][S+]1CCc2nc(N3Cc4ccc(C(F)(F)F)cc4C3)nc(NC3(CO)CCC3)c21 (stereo not drawn) [Compound 62] | 29.5
[O-][S+]1CCc2nc(N3Cc4ccc(Cl)cc4C3)nc(NC3(CO)CCC3)c21 (stereo not drawn) [Compound 33] | 9
[O-][S+]1CCc2nc(N3CCc4ccsc4C3)nc(NC3(CO)CCC3)c21 (stereo not drawn) [Compound 36] | 18.1
COc1nn(C)cc1Nc1nc(N2CCc3cc(N4CCCC4)ccc3C2)nc2c1[S+]([O-])CC2 (stereo not drawn) [Compound 193] | 38.2
C[C@H]1c2ccc(N3CCCC3)cc2CCN1c1nc2c(c(NC3(CO)COC3)n1)[S+]([O-])CC2 (stereo partly drawn) [Compound 200] | 74.4
[O-][S+]1CCc2nc(N3CCc4cc(N5CCCC5)ccc4C3)nc(Nc3cnn(C4COC4)c3)c21 (stereo not drawn) [Compound 192] | 60.3
[O-][S+]1CCc2nc(N3CCc4cc(N5CCCCC5)ccc4C3)nc(NC3(CO)CCC3)c21 (stereo not drawn) [Compound 143] | 72.5

same assay, conditions: read-out: Cell Inhibition % @100 nM, 100 nM, Flpin-293-PDE4B2 cells

SMILES | inhibition at 0.1 µM [%]
[O-][S+]1CCc2nc(N3CCc4ccc(Br)cc4CC3)nc(NC3(CO)CCC3)c21 (stereo not drawn) [Compound 46] | 99
[O-][S+]1CCc2nc(N3CCc4sc(Br)cc4C3)nc(NC3(CO)CCC3)c21 (stereo not drawn) [Compound 55] | 93.4
[O-][S+]1CCc2nc(N3Cc4ccc(C(F)(F)F)cc4C3)nc(NC3(CO)CCC3)c21 (stereo not drawn) [Compound 62] | 69.1
[O-][S+]1CCc2nc(N3Cc4ccc(Cl)cc4C3)nc(NC3(CO)CCC3)c21 (stereo not drawn) [Compound 33] | 33.2
[O-][S+]1CCc2nc(N3CCc4ccsc4C3)nc(NC3(CO)CCC3)c21 (stereo not drawn) [Compound 36] | 66.6
COc1nn(C)cc1Nc1nc(N2CCc3cc(N4CCCC4)ccc3C2)nc2c1[S+]([O-])CC2 (stereo not drawn) [Compound 193] | 96
C[C@H]1c2ccc(N3CCCC3)cc2CCN1c1nc2c(c(NC3(CO)COC3)n1)[S+]([O-])CC2 (stereo partly drawn) [Compound 200] | 99.9
[O-][S+]1CCc2nc(N3CCc4cc(N5CCCC5)ccc4C3)nc(Nc3cnn(C4COC4)c3)c21 (stereo not drawn) [Compound 192] | 99.2
[O-][S+]1CCc2nc(N3CCc4cc(N5CCCCC5)ccc4C3)nc(NC3(CO)CCC3)c21 (stereo not drawn) [Compound 143] | 100

molecular target: T1, PDE4B2 (Homo sapiens, UniProt Q07343); assay: not given; conditions: read-out: PDE4B2 IC50; enzyme assay
T1 sequence (Q07343 1-564 isoform Q07343-2, species assumed): as the sequence (Q07343 1-564 isoform Q07343-2) above

SMILES | IC50 [pM]
COc1nn(C)cc1Nc1nc(N2CCc3cc(N4CCCC4)ccc3C2)nc2c1[S+]([O-])CC2 (stereo not drawn) [Compound 193] | 418
C[C@H]1c2ccc(N3CCCC3)cc2CCN1c1nc2c(c(NC3(CO)COC3)n1)[S+]([O-])CC2 (stereo partly drawn) [Compound 200] | 117
[O-][S+]1CCc2nc(N3CCc4cc(N5CCCC5)ccc4C3)nc(Nc3cnn(C4COC4)c3)c21 (stereo not drawn) [Compound 192] | 140
[O-][S+]1CCc2nc(N3CCc4cc(N5CCCCC5)ccc4C3)nc(NC3(CO)CCC3)c21 (stereo not drawn) [Compound 143] | 113

molecular target: PDE4D2 (Homo sapiens, UniProt Q08499); assay: PDE4D2 enzyme experiment (AMP-Glo); conditions: read-out: PDE4D2 IC50 Binding; enzyme assay
Sequence (Q08499 303-809 limits assumed): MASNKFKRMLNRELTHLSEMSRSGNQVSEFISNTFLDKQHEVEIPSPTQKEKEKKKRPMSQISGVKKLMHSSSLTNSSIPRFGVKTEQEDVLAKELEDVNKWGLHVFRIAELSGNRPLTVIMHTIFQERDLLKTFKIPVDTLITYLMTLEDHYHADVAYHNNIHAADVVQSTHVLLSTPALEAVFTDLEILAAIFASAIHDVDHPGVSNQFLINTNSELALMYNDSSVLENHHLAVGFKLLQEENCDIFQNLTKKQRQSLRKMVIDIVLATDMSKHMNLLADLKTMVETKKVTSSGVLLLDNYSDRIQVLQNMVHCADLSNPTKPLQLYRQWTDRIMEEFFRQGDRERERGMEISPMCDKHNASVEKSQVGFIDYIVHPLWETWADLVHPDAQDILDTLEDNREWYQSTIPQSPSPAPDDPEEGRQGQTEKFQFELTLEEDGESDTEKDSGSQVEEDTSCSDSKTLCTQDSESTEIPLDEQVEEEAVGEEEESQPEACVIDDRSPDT
Description: (§1) All compounds were dissolved in DMSO into 10 mM or 20 mM stock solutions. The compound to be tested was diluted with DMSO in a 3-fold gradient. 20 nL/well of the compound or a DMSO control was transferred to a 384-well plate by using Echo 550 instrument. The plate was sealed with a membrane and centrifuged for 1 minute. A 2× enzyme solution was prepared with an assay buffer, and 2 uL/well of the 2× enzyme solution was added, followed by equilibration at room temperature for 10 minutes. A 2× Cyclic-3′,5′-AMP substrate solution was prepared with an assay buffer, and 2 uL/well of the 2× substrate solution was added, followed by incubation at room temperature for 60 minutes. 4 μL of AMP-glo reagent was added, followed by incubation at room temperature for 60 minutes. 8 ul of an AMP detection solution was added, followed by incubation at room temperature for 60 minutes. An RLU value was read on Envision 2105 plate reader. The RLU value represents the concentration of the product AMP. Inhibition rate %=(1−(RLUpositive control−RLUcomnpound)/(RLUpositive control−RLUnegative control))*100. The IC50 value was then calculated by Graphpad 8.0 software using Y=Bottom+(Top−Bottom)/(1+10^((LogIC50−X)*HillSlope)).

SMILES | IC50 [pM]
COc1nn(C)cc1Nc1nc(N2CCc3cc(N4CCCC4)ccc3C2)nc2c1[S+]([O-])CC2 (stereo not drawn) [Compound 193] | 1280
C[C@H]1c2ccc(N3CCCC3)cc2CCN1c1nc2c(c(NC3(CO)COC3)n1)[S+]([O-])CC2 (stereo partly drawn) [Compound 200] | 119
[O-][S+]1CCc2nc(N3CCc4cc(N5CCCC5)ccc4C3)nc(Nc3cnn(C4COC4)c3)c21 (stereo not drawn) [Compound 192] | 450
[O-][S+]1CCc2nc(N3CCc4cc(N5CCCCC5)ccc4C3)nc(NC3(CO)CCC3)c21 (stereo not drawn) [Compound 143] | 252

molecular target: T1, PDE4B2; assay: biochemical; conditions: read-out: PDE4B2 Enzyme Inhibition % @10 nM
Description: as §1

SMILES | inhibition at 0.01 µM [%]
COc1ccc2c(c1)CCN(c1nc3c(c(NC4(CO)CCC4)n1)[S+]([O-])CC3)CC2 (stereo not drawn) [Compound 47] | 98.4
[O-][S+]1CCc2nc(N3CCc4ccc(Br)cc4CC3)nc(NC3(CO)CCC3)c21 (stereo not drawn) [Compound 46] | 98.9
[O-][S+]1CCc2nc(N3CCc4sc(Br)cc4C3)nc(NC3(CO)CCC3)c21 (stereo not drawn) [Compound 55] | 93.3
[O-][S+]1CCc2nc(N3Cc4ccc(C(F)(F)F)cc4C3)nc(NC3(CO)CCC3)c21 (stereo not drawn) [Compound 62] | 83.8
[O-][S+]1CCc2nc(N3Cc4ccc(Cl)cc4C3)nc(NC3(CO)CCC3)c21 (stereo not drawn) [Compound 33] | 72.3
[O-][S+]1CCc2nc(N3CCc4ccsc4C3)nc(NC3(CO)CCC3)c21 (stereo not drawn) [Compound 36] | 74.5

same assay, conditions: read-out: PDE4B2 Enzyme Inhibition % @100 nM

SMILES | inhibition at 0.1 µM [%]
COc1ccc2c(c1)CCN(c1nc3c(c(NC4(CO)CCC4)n1)[S+]([O-])CC3)CC2 (stereo not drawn) [Compound 47] | 100
[O-][S+]1CCc2nc(N3CCc4ccc(Br)cc4CC3)nc(NC3(CO)CCC3)c21 (stereo not drawn) [Compound 46] | 100
[O-][S+]1CCc2nc(N3CCc4sc(Br)cc4C3)nc(NC3(CO)CCC3)c21 (stereo not drawn) [Compound 55] | 99.9
[O-][S+]1CCc2nc(N3Cc4ccc(C(F)(F)F)cc4C3)nc(NC3(CO)CCC3)c21 (stereo not drawn) [Compound 62] | 101
[O-][S+]1CCc2nc(N3Cc4ccc(Cl)cc4C3)nc(NC3(CO)CCC3)c21 (stereo not drawn) [Compound 33] | 98.6
[O-][S+]1CCc2nc(N3CCc4ccsc4C3)nc(NC3(CO)CCC3)c21 (stereo not drawn) [Compound 36] | 99
